In ChEMBL document CHEMBL1142315, “In silico screening and biological evaluation of inhibitors of Src-SH3 domain interaction with a proline-rich ligand” (Bioorg Med Chem Lett, 2008):
The source made the active and inactive calls. The rule behind the calls is not given here.

Tests used:
[1] = target: Proto-oncogene tyrosine-protein kinase Src (Homo sapiens) (UniProt P12931); assay: Inhibition of interaction between human Src-SH3 domain and PRP2 at 800 uM by fluorescence polarization technique
[2] = target: Proto-oncogene tyrosine-protein kinase Src (Homo sapiens) (UniProt P12931); assay: Inhibition of interaction between human Src-SH3 domain and PRP2 at 100 uM by fluorescence polarization technique

Sequence of Proto-oncogene tyrosine-protein kinase Src (Homo sapiens) (P12931 2-536 limits assumed): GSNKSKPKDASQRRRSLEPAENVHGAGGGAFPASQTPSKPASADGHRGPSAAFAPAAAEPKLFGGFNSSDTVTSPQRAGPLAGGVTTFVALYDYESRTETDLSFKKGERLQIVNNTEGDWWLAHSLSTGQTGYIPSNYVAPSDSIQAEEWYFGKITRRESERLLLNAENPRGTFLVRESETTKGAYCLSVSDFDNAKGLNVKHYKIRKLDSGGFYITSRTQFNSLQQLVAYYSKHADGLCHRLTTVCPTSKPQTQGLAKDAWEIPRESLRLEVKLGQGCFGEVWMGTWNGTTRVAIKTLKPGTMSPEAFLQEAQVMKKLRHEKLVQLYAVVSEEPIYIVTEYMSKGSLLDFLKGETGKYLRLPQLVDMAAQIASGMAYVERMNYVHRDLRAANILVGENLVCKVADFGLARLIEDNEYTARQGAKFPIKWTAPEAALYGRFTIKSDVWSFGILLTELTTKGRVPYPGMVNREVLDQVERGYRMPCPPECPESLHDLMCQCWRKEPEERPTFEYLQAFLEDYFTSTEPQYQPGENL

Activity [1]	inhibition [2]	Structure (SMILES)
Active		Cc1cc(NCCNc2ccc3c(c2)OCCO3)c2ccc3ccccc3c2n1
Active	22%	COc1ccc(NCCNc2cc(C)nc3c2ccc2ccccc23)cc1OC
